Molecules are shown by their SMILES. pIC50, pKd: −log10 of the molar value. The source made the active and inactive calls. The rule behind the calls is not given here.

Series [1] has as its target T1, Myc proto-oncogene protein (Homo sapiens, UniProt P01106). Description: Binding affinity to recombinant full-length N-terminal hexahistidine-tagged c-Myc (353 to 437 residues) bHLH-ZIP domain (unknown origin) expressed in Escherichia coli BL21 DE3 (pLysS) by fluorescence polarization assay. A general note: Fluorescence polarisation rises when a labelled molecule tumbles more slowly, as on binding a larger partner.

In the next series the test system is HL-60. Description: Cytotoxicity against human HL60 cells expressing c-Myc assessed as growth inhibition after 4 to 5 days by MTT assay. Format: functional, cell-based.
The subject of another series is Daudi. Description: Cytotoxicity against human Daudi Burkitt lymphoma cells expressing c-Myc assessed as growth inhibition after 4 to 5 days by MTT assay. It is filed as functional, cell-based.
Series [2] can be described thus: Cytotoxicity against non-transformed rat TGR1 assessed as growth inhibition after 4 to 5 days by MTT assay. Format: cell-based.
Series [3] is described as follows: Cytotoxicity against c-Myc null rat TGR1 reconstituted with HMGA1b or MT-MC1 assessed as growth inhibition after 4 to 5 days by MTT assay. Format: cell-based. Background: Tetrazolium assays rely on reduction of a dye to a coloured formazan, in cell work by metabolically active cells.
Series [4] addresses Protein max (Homo sapiens) (UniProt P61244). Briefly: Binding affinity to human hexahistidine-tagged Max p21 bHLH-ZIP domain expressed in Escherichia coli M15 (pRep4) at 10 uM by fluorescence polarization assay.
In series [5] the target is T1, Myc proto-oncogene protein. Briefly: Binding affinity to recombinant full-length N-terminal hexahistidine-tagged c-Myc (353 to 437 residues) bHLH-ZIP domain (unknown origin) expressed in Escherichia coli BL21 DE3 (pLysS) assessed as changes in shape or intensity of CD spectrum at 5 uM by circular dichroism assay. (Circular dichroism is the unequal absorption of left and right circularly polarised light.)

The target of series [6] is T2, c-Myc/Max (Homo sapiens) (UniProt P01106+P61244). Description: Inhibition of recombinant full-length N-terminal hexahistidine-tagged c-Myc (353 to 437 residues) bHLH-ZIP domain (unknown origin) expressed in Escherichia coli BL21 DE3 (pLysS)/human hexahistidine-tagged Max p21 expressed in Escherichia coli M15 (pRep4) assessed as disruption of E-Box DNA binding preincubated for 30 mins with c-Myc followed by Max p21 and E-box element addition measured after 15 mins by electrophoretic mobility shift assay.

Series [7] can be described thus: Metabolic stability of the compound.
Series [8] has as its target T3, c-Myc/c-Max (Homo sapiens) (UniProt P01106+P61244). Briefly: Inhibition of recombinant c-Myc/Max (unknown origin) expressed in human HL60 cells assessed as disruption of c-Myc/Max association after 6 hrs by co-immunoprecipitation assay. It is filed as cell-based.
For series [9], the target named is T3, c-Myc/c-Max (Homo sapiens). Description: Inhibition of recombinant c-Myc/Max (unknown origin) expressed in human HL60 cells assessed as disruption of c-Myc/Max association after 16 hrs by co-immunoprecipitation assay. Format: cell-based.
Series [10] deals with T1, Myc proto-oncogene protein. Description: Displacement of 10058-F4 from recombinant full-length N-terminal hexahistidine-tagged c-Myc (353 to 437 residues) bHLH-ZIP domain (unknown origin) expressed in Escherichia coli BL21 DE3 (pLysS) by fluorescence polarization assay.
The target in series [11] is T1, Myc proto-oncogene protein. Briefly: Binding affinity to recombinant full-length N-terminal hexahistidine-tagged c-Myc (353 to 437 residues) bHLH-ZIP domain (unknown origin) expressed in Escherichia coli BL21 DE3 (pLysS) assessed as changes in alpha1H signals of Phe 374 to 375 and Tyr 402 residues at 500 uM by NMR spectroscopy.
The target of series [12] is T1, Myc proto-oncogene protein. Briefly: Binding affinity to recombinant full-length N-terminal hexahistidine-tagged c-Myc (353 to 437 residues) bHLH-ZIP domain (unknown origin) expressed in Escherichia coli BL21 DE3 (pLysS) assessed as changes in COSY spectra in alpha1H region at 500 uM by NMR spectroscopy.
Series [13] addresses T1, Myc proto-oncogene protein. Briefly: Binding affinity to recombinant full-length N-terminal hexahistidine-tagged c-Myc (353 to 437 residues) bHLH-ZIP domain (unknown origin) expressed in Escherichia coli BL21 DE3 (pLysS) assessed as changes in NOESY spectra at 500 uM by NMR spectroscopy.
The target in series [14] is T2, c-Myc/Max (Homo sapiens). Briefly: Inhibition of recombinant full-length N-terminal hexahistidine-tagged c-Myc (353 to 437 residues) bHLH-ZIP domain (unknown origin) expressed in Escherichia coli BL21 DE3 (pLysS)/human hexahistidine-tagged Max p21 expressed in Escherichia coli M15 (pRep4) assessed as disruption of E-Box DNA binding at 25 to 50 nM preincubated for 30 mins with c-Myc followed by Max p21 and E-box element measured after 15 mins by electrophoretic mobility shift assay.

Series [15] has as its target T1, Myc proto-oncogene protein. Description: Binding affinity to recombinant full-length N-terminal hexahistidine-tagged c-Myc (353 to 437 residues) bHLH-ZIP domain (unknown origin) expressed in Escherichia coli BL21 DE3 (pLysS) assessed as changes in alpha1H signals of Tyr 402 residues at 500 uM by NMR spectroscopy.
The target in series [16] is T1, Myc proto-oncogene protein. Briefly: Binding affinity to recombinant truncated N-terminal hexahistidine-tagged c-Myc (363 to 381 residues) bHLH-ZIP domain (unknown origin) expressed in Escherichia coli BL21 DE3 (pLysS) by fluorescence polarization assay.
Series [17] concerns the target T1, Myc proto-oncogene protein. Briefly: Binding affinity to recombinant truncated N-terminal hexahistidine-tagged c-Myc (400 to 439 residues) bHLH-ZIP domain (unknown origin) expressed in Escherichia coli BL21 DE3 (pLysS) by fluorescence polarization assay.

Sequence of Protein max (Homo sapiens) (P61244 whole entry, the tested form may be a part): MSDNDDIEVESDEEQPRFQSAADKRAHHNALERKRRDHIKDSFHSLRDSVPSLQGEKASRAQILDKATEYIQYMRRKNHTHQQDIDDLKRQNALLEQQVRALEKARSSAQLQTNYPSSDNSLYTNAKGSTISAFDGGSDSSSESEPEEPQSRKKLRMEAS
T1 sequence (P01106 whole entry, the tested form may be a part): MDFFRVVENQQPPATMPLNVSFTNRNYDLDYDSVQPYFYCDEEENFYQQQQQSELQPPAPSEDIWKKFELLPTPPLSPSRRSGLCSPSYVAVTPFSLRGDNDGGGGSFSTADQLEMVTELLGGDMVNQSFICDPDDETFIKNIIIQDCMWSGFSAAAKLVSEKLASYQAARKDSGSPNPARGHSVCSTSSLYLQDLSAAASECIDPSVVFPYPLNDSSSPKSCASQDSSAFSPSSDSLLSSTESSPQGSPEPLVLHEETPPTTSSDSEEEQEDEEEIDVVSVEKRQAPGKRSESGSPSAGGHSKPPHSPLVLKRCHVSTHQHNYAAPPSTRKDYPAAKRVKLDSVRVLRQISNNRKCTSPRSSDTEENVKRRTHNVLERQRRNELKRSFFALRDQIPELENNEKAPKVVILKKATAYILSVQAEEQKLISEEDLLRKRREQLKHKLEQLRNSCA
T3 sequence (P01106 whole entry): as the sequence (P01106 whole entry, the tested form may be a part) above
T3 sequence (P61244 2-160 partner limits assumed): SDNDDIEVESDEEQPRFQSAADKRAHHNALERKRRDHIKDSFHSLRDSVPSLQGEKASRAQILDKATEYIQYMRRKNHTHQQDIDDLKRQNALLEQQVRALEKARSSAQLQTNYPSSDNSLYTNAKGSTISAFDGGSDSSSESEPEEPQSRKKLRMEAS

Regarding `CCc1ccc(/C=C2\SC(=O)N(CCCCCNC(=O)CNC(=O)c3ccc(Nc4ccc([N+](=O)[O-])c5nonc45)cc3)C2=O)cc1`, the pKd in series [1] was 8.44. Besides, the pIC50 is 5.40 to 5.70 in the series on HL-60 and 5.22 to 5.40 in the series on Daudi. In addition, the “growth inhibition (GI)” value in series [2] and in series [3] was “Non-Toxic” in each case.
For the compound `CCc1ccc(/C=C2\SC(=O)N(CCCCCNC(=O)c3cccc(Nc4ccc([N+](=O)[O-])c5nonc45)c3)C2=O)cc1`, in series [1], the pKd is 6.96. Also, the outcome in [4] and in [5] was inactive. Besides, the inhibition result at c-Myc/Max (Homo sapiens) [6] was “Active”. For the same compound, the results for the pIC50 with HL-60 and in the series with Daudi were under 4.52 and under 5.00, respectively. For the same compound, the “growth inhibition (GI)” value in series [2] and in series [3] was “Non-Toxic” in each case.
For `O=C1NC(=S)S/C1=C\c1ccc(C(=O)NCCCCCNC(=O)c2cccc(Nc3ccc([N+](=O)[O-])c4nonc34)c2)cc1`, the outcome in series [4] and in [5] was inactive. Besides, the inhibition result on c-Myc/Max (Homo sapiens) [6] was “Active”. Moreover, the “growth inhibition (GI)” value in series [2] and in [3] was “Non-Toxic” throughout.
With `CCc1ccc(/C=C2\SC(=O)N(CCCCNC(=O)c3ccc(Nc4ccc([N+](=O)[O-])c5nonc45)cc3)C2=O)cc1`, the “growth inhibition (GI)” value in series [2] and in series [3] was “Non-Toxic” throughout. Further, the Stability entry in series [7] is “Unstable”.
Turning to `O=C(CNC(=O)c1ccc(Nc2ccc([N+](=O)[O-])c3nonc23)cc1)NCCCCCNC(=O)c1ccc(/C=C2\SC(=S)NC2=O)cc1`, the pKd in [1] is 6.49. The pIC50 in the series with HL-60 is 4.89 to 5.15; in the series with Daudi it was 4.96 to 5.15. In addition, the “growth inhibition (GI)” value in series [2] and in series [3] was “Non-Toxic” each time.
With `O=C(NCCCCCCN1C(=O)S/C(=C\c2ccc(F)cc2)C1=O)c1ccccc1Nc1ccc([N+](=O)[O-])c2nonc12`, the pKd in series [1] was 8.34. In addition, the values for the pIC50 with HL-60 and in the series on Daudi were 5.46 to 5.52 and 5.10 to 5.22, respectively.
For the compound `O=C1NC(=S)S/C1=C/c1ccc(C(=O)NCCCCCNC(=O)c2ccc(Nc3ccc([N+](=O)[O-])c4nonc34)cc2)cc1`, the outcome in series [4] and in series [5] was inactive. Also, on c-Myc/Max (Homo sapiens) [6], the inhibition result was “Active”. Moreover, the “growth inhibition (GI)” value in series [2] and in series [3] was “Non-Toxic” each time.
With `CC(=O)NCCCCCOC(=O)c1ccc(Nc2ccc([N+](=O)[O-])c3nonc23)cc1`, the pKd in series [1] was 5.77.
Regarding `CCc1ccc(/C=C2\SC(=O)N(CCCCCNC(=O)CCCCCNC(=O)c3ccc(Nc4ccc([N+](=O)[O-])c5nonc45)cc3)C2=O)cc1`, the pKd in series [1] was 8.30.
As for `O=C(NCCCCCN1C(=O)S/C(=C\c2ccc(F)cc2)C1=O)c1ccccc1Nc1ccc([N+](=O)[O-])c2nonc12`, in series [1], the pKd is 7.96. The pIC50 is 5.77 to 5.82 in the series on HL-60 and 5.92 to 6.00 in the series with Daudi. Moreover, the inhibition result in series [8] is “Dose-dependent effect”. For the same compound, in series [9], the inhibition result is “inactive”. Further, the Stability result in series [7] was “Unstable”.
Consider `CCc1ccc(/C=C2\SC(=O)N(CCCCCCNC(C)=O)C2=O)cc1`, for which the pKd in series [1] is 5.15. The result in [10] was Active.
Turning to `CCc1ccc(/C=C2\SC(=O)N(CCCCNC(=O)c3ccccc3Nc3ccc([N+](=O)[O-])c4nonc34)C2=O)cc1`, the pKd in series [1] was 8.52. For the same compound, the pIC50 is 5.22 to 5.70 in the series on HL-60 and 5.60 to 5.70 in the series on Daudi. Moreover, the inhibition result in series [8] is “Dose-dependent effect”. Besides, the inhibition entry in [9] is “inactive”. In addition, the Stability entry in series [7] is “Unstable”.
As for `O=C(CCCCCNC(=O)c1ccc(Nc2ccc([N+](=O)[O-])c3nonc23)cc1)NCCCCCNC(=O)c1ccc(/C=C2\SC(=S)NC2=O)cc1`, the pKd in [1] was 7.26.
Turning to `CCc1ccc(/C=C2\SC(=O)N(CCCCCNC(=O)c3ccc(Nc4ccc([N+](=O)[O-])c5nonc45)cc3)C2=O)cc1`, the pKd in [1] was 9.22. Further, the result in [4] and in series [5] was inactive. Besides, the inhibition entry (in series [11]; in series [12]; at c-Myc/Max (Homo sapiens) [6]) was “Active” in each case. Moreover, in series [13], the outcome was Active. Also, the pIC50 is 5.05 to 5.15 with HL-60 and 5.40 to 5.70 in the series with Daudi. Further, the “growth inhibition (GI)” value in [2] and in series [3] was “Non-Toxic” throughout.
`O=[N+]([O-])c1ccc(Nc2ccccc2-c2ccccc2)c2nonc12`: the inhibition entry (in series [12]; on c-Myc/Max (Homo sapiens) [14]) was “Active” in each case. For the same compound, the “growth inhibition (GI)” value in [2] and in series [3] was “Non-Toxic” each time.
With `O=C(NCCCCCCN1C(=O)S/C(=C\c2ccc(F)cc2)C1=O)c1ccc(Nc2ccc([N+](=O)[O-])c3nonc23)cc1`, in series [1], the pKd was 8.77. Also, the pIC50 is 5.40 to 5.52 in the series on HL-60 and 5.92 with Daudi. Further, the inhibition entry in series [8] was “Dose-dependent effect”. Moreover, in [9], the inhibition entry was “inactive”. Also, in series [7], the Stability entry is given as “Unstable”.
For `CCc1ccc(/C=C2\SC(=S)NC2=O)cc1`, the inhibition result (in series [15]; in [12]; on c-Myc/Max (Homo sapiens) [14]) was “Active” each time. For the same compound, the “growth inhibition (GI)” value in series [2] and in [3] was “Non-Toxic” in each case.
For the compound `O=C1NC(=S)S/C1=C\c1ccc(C(=O)O)cc1`, the pKd in [1] is 4.59.
Take `O=C(NCCCCCN1C(=O)S/C(=C\c2ccc(F)cc2)C1=O)c1ccc(Nc2ccc([N+](=O)[O-])c3nonc23)cc1`: in series [1], the pKd is 8.44. The pIC50 was 5.00 to 5.22 with HL-60 and 5.15 to 5.22 in the series with Daudi.
With `O=C1NC(=S)S/C1=C\c1ccc(C(=O)NCCCCCNC(=O)c2ccccc2Nc2ccc([N+](=O)[O-])c3nonc23)cc1`, the pKd was 7.62 in series [1], 8.00 in series [16] and 6.91 in series [17]. The outcome in [4] and in series [5] was inactive. Further, the inhibition result at c-Myc/Max (Homo sapiens) [6] is “Active”. The pIC50 in the series with HL-60 is under 5.00. The “growth inhibition (GI)” value in series [2] and in [3] was “Non-Toxic” in each case.

One may read the pKd as the Kd on a negative log10 scale, so that one unit is a factor of ten. As usually defined, the pIC50 is the IC50 on a negative log10 scale, so that one unit is a factor of ten.
